From PubChem BioAssay (NCI)
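48-hour exposure; five concentrations; linearly interpolated endpoints. The concentration for full growth arrest is given as TGI.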

Key:
Assay in all cases: growth of human tumour cells (NCI), 48 h
SNB-75 CNS = test system: SNB-75 CNS
NCI/ADR-RES ovarian = test system: NCI/ADR-RES ovarian
SK-MEL-2 melanoma = test system: SK-MEL-2 melanoma
OVCAR-8 ovarian = test system: OVCAR-8 ovarian
TK-10 renal = test system: TK-10 renal
SF-295 CNS = test system: SF-295 CNS
PC-3 prostate = test system: PC-3 prostate
NCI-H23 lung = test system: NCI-H23 lung
ACHN renal = test system: ACHN renal
SK-OV-3 ovarian = test system: SK-OV-3 ovarian
KM12 colon = test system: KM12 colon
RXF 393 renal = test system: RXF 393 renal
OVCAR-3 ovarian = test system: OVCAR-3 ovarian
SK-MEL-28 melanoma = test system: SK-MEL-28 melanoma
HL-60(TB) leukemia = test system: HL-60(TB) leukemia
UO-31 renal = test system: UO-31 renal
UACC-62 melanoma = test system: UACC-62 melanoma
SW-620 colon = test system: SW-620 colon
MCF7 breast = test system: MCF7 breast
SK-MEL-5 melanoma = test system: SK-MEL-5 melanoma
UACC-257 melanoma = test system: UACC-257 melanoma
SF-268 CNS = test system: SF-268 CNS
786-0 renal = test system: 786-0 renal
HT29 colon = test system: HT29 colon
IGROV1 ovarian = test system: IGROV1 ovarian
M14 melanoma = test system: M14 melanoma
NCI-H226 lung = test system: NCI-H226 lung
NCI-H460 lung = test system: NCI-H460 lung
HS 578T breast = test system: HS 578T breast
A549 NSCLC = test system: A549 NSCLC
HCC-2998 colon = test system: HCC-2998 colon
MDA-MB-435 = test system: MDA-MB-435
A498 renal = test system: A498 renal
COLO 205 colon = test system: COLO 205 colon
HCT-116 colon = test system: HCT-116 colon
LOX IMVI melanoma = test system: LOX IMVI melanoma
HOP-62 NSCLC = test system: HOP-62 NSCLC
OVCAR-4 ovarian = test system: OVCAR-4 ovarian
MOLT-4 leukemia = test system: MOLT-4 leukemia
HCT-15 colon = test system: HCT-15 colon
T-47D breast = test system: T-47D breast
SNB-19 CNS = test system: SNB-19 CNS
OVCAR-5 ovarian = test system: OVCAR-5 ovarian
SF-539 CNS = test system: SF-539 CNS
EKVX NSCLC = test system: EKVX NSCLC
SR leukemia = test system: SR leukemia
MDA-N = test system: MDA-N
MDA-MB-231 breast = test system: MDA-MB-231 breast
BT-549 breast = test system: BT-549 breast
DU-145 prostate = test system: DU-145 prostate
HOP-92 NSCLC = test system: HOP-92 NSCLC
CAKI-1 renal = test system: CAKI-1 renal
SN12C renal = test system: SN12C renal
U251 CNS = test system: U251 CNS
MALME-3M melanoma = test system: MALME-3M melanoma
NCI-H522 lung = test system: NCI-H522 lung
CCRF-CEM leukemia = test system: CCRF-CEM leukemia
RPMI-8226 leukemia = test system: RPMI-8226 leukemia

With `CC(C)OC(=O)c1ccc(NCC2=CC(=O)C=CC2=O)cc1Cl` the TGI (SNB-75 CNS) was over 70.3 µM, the TGI (NCI/ADR-RES ovarian) was over 100 µM and the TGI (SK-MEL-2 melanoma) was over 100 µM. The TGI (OVCAR-8 ovarian) was over 51.4 µM, the TGI (TK-10 renal) was 30 µM and the TGI (SF-295 CNS) was 41.4 µM. The TGI (PC-3 prostate) was over 100 µM, the TGI (NCI-H23 lung) was 33.1 µM and the TGI (ACHN renal) was 16 µM. The TGI (SK-OV-3 ovarian) was over 100 µM, the TGI (KM12 colon) was 33.2 µM and the TGI (RXF 393 renal) was 47.5 µM. The TGI (OVCAR-3 ovarian) was over 45.9 µM, the TGI (SK-MEL-28 melanoma) was 56.5 µM and the TGI (HL-60(TB) leukemia) was over 21.8 µM. It also gave a TGI (UO-31 renal) of 13.9 µM, a TGI (UACC-62 melanoma) of 30.1 µM and a TGI (SW-620 colon) of over 53.5 µM. For the same molecule, the TGI (MCF7 breast) was over 60.1 µM, the TGI (SK-MEL-5 melanoma) was over 57.6 µM and the TGI (UACC-257 melanoma) was 33.9 µM. The TGI (SF-268 CNS) was 35.2 µM, the TGI (786-0 renal) was over 48.3 µM and the TGI (HT29 colon) was over 62.5 µM. For the same molecule, the TGI (IGROV1 ovarian) was 30.5 µM, the TGI (M14 melanoma) was over 100 µM and the TGI (NCI-H226 lung) was over 62.6 µM. It also gave a TGI (NCI-H460 lung) of 41 µM, a TGI (HS 578T breast) of over 100 µM and a TGI (A549 NSCLC) of over 100 µM. For the same molecule, the TGI (HCC-2998 colon) was 32.8 µM, the TGI (MDA-MB-435) was 35.1 µM and the TGI (A498 renal) was 43.2 µM. The TGI (COLO 205 colon) was 21.3 µM, the TGI (HCT-116 colon) was over 53.2 µM and the TGI (LOX IMVI melanoma) was 35.6 µM. For the same molecule, the TGI (HOP-62 NSCLC) was over 100 µM, the TGI (OVCAR-4 ovarian) was 32 µM and the TGI (MOLT-4 leukemia) was over 30.7 µM. The TGI (HCT-15 colon) was 18.6 µM, the TGI (T-47D breast) was 7.85 µM and the TGI (SNB-19 CNS) was 44.2 µM. The TGI (OVCAR-5 ovarian) was 70.1 µM, the TGI (SF-539 CNS) was 37.5 µM and the TGI (EKVX NSCLC) was 32.5 µM. It also gave a TGI (SR leukemia) of 8.22 µM, a TGI (MDA-N) of 25.2 µM and a TGI (MDA-MB-231 breast) of 47.6 µM. The TGI (BT-549 breast) was 9.92 µM, the TGI (DU-145 prostate) was 42.3 µM and the TGI (HOP-92 NSCLC) was 14.4 µM. The TGI (CAKI-1 renal) was 6.19 µM, the TGI (SN12C renal) was 44.3 µM and the TGI (U251 CNS) was 54.9 µM.
For `NC(=O)C/C=C/CC(N)=O`, the TGI (SNB-75 CNS) was over 100 µM, the TGI (MALME-3M melanoma) was over 100 µM and the TGI (NCI/ADR-RES ovarian) was over 100 µM. For the same molecule, the TGI (SK-MEL-2 melanoma) was over 100 µM, the TGI (OVCAR-8 ovarian) was over 100 µM and the TGI (TK-10 renal) was over 100 µM. It also gave a TGI (SF-295 CNS) of over 100 µM, a TGI (PC-3 prostate) of over 100 µM and a TGI (NCI-H23 lung) of over 100 µM. The TGI (ACHN renal) was over 100 µM, the TGI (SK-OV-3 ovarian) was over 100 µM and the TGI (KM12 colon) was over 100 µM. The TGI (RXF 393 renal) was over 100 µM, the TGI (OVCAR-3 ovarian) was over 100 µM and the TGI (SK-MEL-28 melanoma) was over 100 µM. The TGI (HL-60(TB) leukemia) was over 100 µM, the TGI (UO-31 renal) was over 100 µM and the TGI (UACC-62 melanoma) was over 100 µM. The TGI (SW-620 colon) was over 100 µM, the TGI (MCF7 breast) was over 100 µM and the TGI (SK-MEL-5 melanoma) was over 100 µM. The TGI (UACC-257 melanoma) was over 100 µM, the TGI (SF-268 CNS) was over 100 µM and the TGI (786-0 renal) was over 100 µM. For the same molecule, the TGI (HT29 colon) was over 100 µM, the TGI (IGROV1 ovarian) was over 100 µM and the TGI (M14 melanoma) was over 100 µM. The TGI (NCI-H226 lung) was over 100 µM, the TGI (NCI-H460 lung) was over 100 µM and the TGI (HS 578T breast) was over 100 µM. For the same molecule, the TGI (A549 NSCLC) was over 100 µM, the TGI (HCC-2998 colon) was over 100 µM and the TGI (MDA-MB-435) was over 100 µM. For the same molecule, the TGI (A498 renal) was over 100 µM, the TGI (COLO 205 colon) was over 100 µM and the TGI (HCT-116 colon) was over 100 µM. It also gave a TGI (LOX IMVI melanoma) of over 100 µM, a TGI (HOP-62 NSCLC) of over 100 µM and a TGI (NCI-H522 lung) of over 100 µM. It also gave a TGI (OVCAR-4 ovarian) of over 100 µM, a TGI (HCT-15 colon) of over 100 µM and a TGI (T-47D breast) of over 100 µM. The TGI (SNB-19 CNS) was over 100 µM, the TGI (OVCAR-5 ovarian) was over 100 µM and the TGI (SF-539 CNS) was over 100 µM. The TGI (EKVX NSCLC) was over 100 µM, the TGI (MDA-N) was over 100 µM and the TGI (MDA-MB-231 breast) was over 100 µM. It also gave a TGI (BT-549 breast) of over 100 µM, a TGI (DU-145 prostate) of over 100 µM and a TGI (CCRF-CEM leukemia) of over 100 µM. For the same molecule, the TGI (RPMI-8226 leukemia) was over 100 µM, the TGI (HOP-92 NSCLC) was over 100 µM and the TGI (CAKI-1 renal) was over 100 µM. The TGI (SN12C renal) was over 100 µM and the TGI (U251 CNS) was over 100 µM.
